Data from patent US10414811B2, “Protease-resistant lipidated GLP-1 analogs” (MEDIMMUNE LIMITED, priority 2015, dated 2019).
Read-outs that look alike come from different tables or passages of the source. Numbered stars: 1 amine (or outer) side, 2 acyl side, 3 side chain; on linkers, the order of the positions; unused ones are H or OH. Square brackets hold non-standard residues; d marks the D form. Side chains are listed from the residue outwards. Peptide text beside a SMILES is read from it. * marks the point of attachment. γGlu = O=C(O)[C@H](CCC(=O)[*:2])N[*:1]; Palmitoyl = CCCCCCCCCCCCCCCC(=O)*; αMeF = C[C@](N)(Cc1ccccc1)C(=O)O; αMeK = C[C@](N)(CCCCN)C(=O)O; αMeS = C[C@](N)(CO)C(=O)O; Aib = CC(C)(N)C(=O)O

What was measured:
Type in all cases: cell-based
[1] = target: T1, human glucagon receptor (GCGR) (Homo sapiens, UniProt P47871); assay: cAMP assay, human GCGR cells; conditions: cAMP assay
T1 construct: expressed in transfected cells
T1 sequence (P47871 26-477): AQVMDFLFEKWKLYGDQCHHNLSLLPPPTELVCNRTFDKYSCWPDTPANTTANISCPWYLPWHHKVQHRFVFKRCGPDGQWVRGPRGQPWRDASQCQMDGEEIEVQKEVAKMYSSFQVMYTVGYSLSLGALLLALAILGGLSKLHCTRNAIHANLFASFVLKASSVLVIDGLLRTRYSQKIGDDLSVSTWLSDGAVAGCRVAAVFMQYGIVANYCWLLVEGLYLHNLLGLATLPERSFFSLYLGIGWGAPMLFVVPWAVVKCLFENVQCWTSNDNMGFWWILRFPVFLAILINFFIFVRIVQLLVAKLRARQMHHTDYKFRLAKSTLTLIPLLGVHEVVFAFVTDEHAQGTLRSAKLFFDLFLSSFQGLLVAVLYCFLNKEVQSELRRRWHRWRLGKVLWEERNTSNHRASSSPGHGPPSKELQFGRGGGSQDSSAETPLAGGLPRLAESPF
How it was run: (§1)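 Peptide-stimulated cAMP measured by two-step HTRF after a 30 min room-temperature incubation with receptor-expressing cells (hGLP-1R, hGIPR at 1×10^5 cells/ml; hGCGR at 2×10^5 cells/ml). Duplicate dilutions; EC50 from 4-parameter logistic fit of % Delta F.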

[2] = target: T2, human glucose-dependent insulinotropic peptide receptor (GIPR) (Homo sapiens, UniProt P48546); assay: cAMP assay, human GIPR cells; conditions: cAMP assay
T2 construct: expressed in transfected cells
T2 sequence (P48546 22-466): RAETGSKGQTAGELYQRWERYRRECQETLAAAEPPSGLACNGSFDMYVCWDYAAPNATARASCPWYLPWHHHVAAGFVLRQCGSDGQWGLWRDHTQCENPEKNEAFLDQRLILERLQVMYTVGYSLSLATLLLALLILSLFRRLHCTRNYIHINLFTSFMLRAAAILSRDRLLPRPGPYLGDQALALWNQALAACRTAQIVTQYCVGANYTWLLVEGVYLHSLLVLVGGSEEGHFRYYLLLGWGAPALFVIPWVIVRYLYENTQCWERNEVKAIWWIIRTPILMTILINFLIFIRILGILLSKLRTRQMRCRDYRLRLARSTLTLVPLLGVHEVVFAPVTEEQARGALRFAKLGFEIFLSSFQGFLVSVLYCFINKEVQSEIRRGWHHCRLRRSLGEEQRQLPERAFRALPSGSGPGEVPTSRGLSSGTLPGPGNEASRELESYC
How it was run: as §1

[3] = target: T3, human GLP-1 receptor (GLP-1R) (Homo sapiens, UniProt P43220); assay: cAMP assay, human GLP-1R cells
T3 construct: expressed in transfected cells
T3 sequence (P43220 24-463): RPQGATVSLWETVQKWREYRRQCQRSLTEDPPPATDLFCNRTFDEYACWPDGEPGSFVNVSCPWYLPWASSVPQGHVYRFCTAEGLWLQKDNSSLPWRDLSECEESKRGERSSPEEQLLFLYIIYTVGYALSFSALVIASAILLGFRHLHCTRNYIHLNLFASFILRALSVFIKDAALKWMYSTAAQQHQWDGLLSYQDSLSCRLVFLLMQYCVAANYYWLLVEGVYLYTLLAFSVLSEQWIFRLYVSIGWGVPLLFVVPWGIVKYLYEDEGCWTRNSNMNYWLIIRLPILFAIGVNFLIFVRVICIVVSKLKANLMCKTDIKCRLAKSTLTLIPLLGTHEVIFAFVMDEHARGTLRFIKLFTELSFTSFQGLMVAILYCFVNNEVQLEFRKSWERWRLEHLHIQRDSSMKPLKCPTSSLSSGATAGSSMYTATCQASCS
How it was run: as §1

[4] = target: T4, GLP-1R (INS1e assay) (Rattus norvegicus, UniProt P32301); assay: INS1e assay, cAMP activity at GLP-1R; conditions: mono-lipidated peptides
T4 construct: endogenous in cells; host or cells: INS-1E cells
T4 sequence (P32301 22-463): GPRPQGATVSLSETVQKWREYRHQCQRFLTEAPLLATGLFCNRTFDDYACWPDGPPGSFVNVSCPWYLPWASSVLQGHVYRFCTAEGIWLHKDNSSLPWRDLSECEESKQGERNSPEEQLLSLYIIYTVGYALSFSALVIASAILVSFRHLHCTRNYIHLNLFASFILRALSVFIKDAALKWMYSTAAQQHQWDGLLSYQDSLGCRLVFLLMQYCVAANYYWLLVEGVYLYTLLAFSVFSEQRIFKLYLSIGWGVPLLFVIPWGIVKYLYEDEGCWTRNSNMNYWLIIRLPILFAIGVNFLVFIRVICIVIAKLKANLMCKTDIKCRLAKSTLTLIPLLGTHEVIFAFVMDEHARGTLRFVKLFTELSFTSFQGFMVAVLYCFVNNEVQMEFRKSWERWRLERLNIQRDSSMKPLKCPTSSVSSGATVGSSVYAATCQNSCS
How it was run: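 It pairs cAMP-d2 acceptor with anti-cAMP cryptate donor, both prepared 1/20 in conjugate/lysis buffer, applied as a two-step protocol.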

[5] = first determination (n1), read-out: Primary assay EC50 Gluc-R (n1)
[6] = second determination (n2), read-out: Primary assay EC50 Gluc-R (n2)
[7] = first determination (n1), read-out: Primary assay EC50 GIP-R (n1)
[8] = second determination (n2), read-out: Primary assay EC50 GIP-R (n2)
[9] = cAMP assay, first determination (n1), read-out: Primary assay EC50 GLP-1R n1
[10] = cAMP assay, second determination (n2), read-out: Primary assay EC50 GLP-1R n2
[11] = mean of n1 and n2, read-out: Mean pM GLP-1R
[12] = mean of n1 and n2, read-out: INS1e assay EC50 Mean pM GLP-1R
[13] = replicate n1, read-out: INS1e assay EC50 GLP-1R n1
[14] = replicate n2, read-out: INS1e assay EC50 GLP-1R n2

EC50 [1, 5]	EC50 [1, 6]	EC50 [2, 7]	EC50 [2, 8]	EC50 [3, 9]	EC50 [3, 10]	EC50 [3, 11]	EC50 [4, 12]	EC50 [4, 13]	EC50 [4, 14]	Structure (SMILES)
≥ 28 nM	≥ 28 nM	≥ 28 nM	≥ 28 nM	11 pM	7.1 pM	9 pM	122 pM	129 pM	115 pM	CCCCCCCCCCCC(=O)NCCCCCC(=O)NCCCCCC(=O)NCCCC[C@H](NC(=O)[C@H](C)NC(=O)[C@H](C)NC(=O)[C@H](CCC(=O)O)NC(=O)CNC(=O)[C@H](CCC(=O)O)NC(=O)[C@H](CC(C)C)NC(=O)[C@](C)(Cc1ccccc1)NC(=O)[C@H](CO)NC(=O)[C@](C)(CO)NC(=O)[C@@H](NC(=O)[C@H](CC(=O)O)NC(=O)[C@H](CO)NC(=O)[C@@H](NC(=O)[C@](C)(Cc1ccccc1)NC(=O)[C@H](CO)NC(=O)CNC(=O)[C@H](CCC(=O)O)NC(=O)C(C)(C)NC(=O)[C@@H](N)Cc1c[nH]cn1)[C@@H](C)O)C(C)C)C(=O)N[C@@H](CCC(=O)O)C(=O)N[C@@](C)(Cc1ccccc1)C(=O)N[C@H](C(=O)N[C@@H](C)C(=O)N[C@@](C)(Cc1ccccc1)C(=O)N[C@H](C(=O)N[C@H](C(=O)N[C@@](C)(CCCCN)C(=O)NCC(=O)NCC(N)=O)C(C)C)C(C)C)[C@@H](C)CC [compound 132]
≥ 27 nM	≥ 27 nM	≥ 27 nM	≥ 27 nM	8.4 pM	6 pM	7.2 pM	429 pM	326 pM	531 pM	CCCCCCCCCCCCCCCC(=O)N[C@@H](CCC(=O)NCCCC[C@H](NC(=O)[C@@H](NC(=O)[C@](C)(Cc1ccccc1)NC(=O)[C@H](CCC(=O)O)NC(=O)[C@](C)(CCCCN)NC(=O)[C@H](C)NC(=O)[C@H](C)NC(=O)[C@H](CCC(=O)O)NC(=O)CNC(=O)[C@H](CCC(=O)O)NC(=O)[C@H](CC(C)C)NC(=O)[C@](C)(Cc1ccccc1)NC(=O)[C@H](CO)NC(=O)[C@](C)(CO)NC(=O)[C@@H](NC(=O)[C@H](CC(=O)O)NC(=O)[C@H](CO)NC(=O)[C@@H](NC(=O)[C@](C)(Cc1ccccc1)NC(=O)[C@H](CO)NC(=O)CNC(=O)[C@H](CCC(=O)O)NC(=O)C(C)(C)NC(=O)[C@@H](N)Cc1c[nH]cn1)[C@@H](C)O)C(C)C)[C@@H](C)CC)C(=O)N[C@@](C)(Cc1ccccc1)C(=O)N[C@H](C(=O)N[C@H](C(=O)N[C@@](C)(CCCCN)C(=O)NCC(=O)NCC(N)=O)C(C)C)C(C)C)C(=O)O [compound 76] (H-H[Aib]EGS[αMeF]TSDV[αMeS]S[αMeF]LEGEAA[αMeK]E[αMeF]IK([γGlu-Palmitoyl])[αMeF]VV[αMeK]GG-NH2; N-terminus assumed)
